Experimental data: ChEMBL document CHEMBL3632515, “Discovery of an L-alanine ester prodrug of the Hsp90 inhibitor, MPC-3100” (Bioorg Med Chem Lett, 2015)
Converted amounts (≈) assume the structure as drawn. Blank lines part the entries; values can stand above or below the compound they belong to. The source made the active and inactive calls. The rule behind the calls is not given here.

Legend:
Liver microsome [1] = experiment: Drug level in human liver microsomes treated with MPC-0767; assay type: ADME
[2] = Aqueous solubility of the compound in simulated intestinal fluid at pH 6.8; assay type: physicochemical
[3] = Tmax in mouse at 200 mg/kg, po administered with 40% captisol by LC-ESI-MS/MS analysis; assay type: ADME, organism-based; conditions: in vivo
Plasma [4] = experiment: Drug level in mouse plasma treated with MPC-0767; assay type: ADME, cell-free
[5] = Cmax in mouse at 200 mg/kg, po administered with 2% CMC by LC-ESI-MS/MS analysis; assay type: ADME, organism-based; set-up: dose 200 mg/kg, route oral; conditions: in vivo
[6] = AUC in mouse at 200 mg/kg, po administered with 2% CMC by LC-ESI-MS/MS analysis; assay type: ADME, organism-based; conditions: in vivo
[7] = Drug level in simulated intestinal fluid treated with MPC-0767 at pH 6.8 in presence of pancreatin; assay type: physicochemical; conditions: simulated gi fluid
[8] = AUC in mouse at 200 mg/kg, po administered with 40% captisol by LC-ESI-MS/MS analysis; assay type: ADME, organism-based; conditions: in vivo
[9] = Cmax in mouse at 200 mg/kg, po administered with 40% captisol by LC-ESI-MS/MS analysis; assay type: ADME, organism-based; set-up: dose 200 mg/kg, route oral; conditions: in vivo
[10] = Apparent permeability of the compound at pH 6.2; assay type: physicochemical; conditions: not told
[11] = Kinetic solubility of the compound at pH 6.5; assay type: physicochemical; conditions: buffer, read-out: Kinetic_solubility
[12] = Tmax in mouse at 200 mg/kg, po administered with 2% CMC by LC-ESI-MS/MS analysis; assay type: ADME, organism-based; conditions: in vivo
[13] = Oral bioavailability in mouse at 200 mg/kg administered with 40% captisol by LC-ESI-MS/MS analysis; assay type: ADME, organism-based; conditions: in vivo
[14] = Oral bioavailability in mouse at 200 mg/kg administered with 2% CMC by LC-ESI-MS/MS analysis; assay type: ADME, organism-based; conditions: in vivo
NCI-N87 [15] = experiment: Antitumor activity against human NCI-N87 cells xenografted in mouse assessed as tumor growth inhibition at 200 mg/kg, po relative to control; assay type: functional; conditions: read-out: TGI
Liver [16] = experiment: Drug level in mouse liver microsomes treated with MPC-0767; assay type: ADME
Mus musculus [17] = experiment: Toxicity in mouse xenografted with human NCI-N87 cells assessed as body weight loss at 265 mg/kg, po; assay type: organism-based; conditions: in vivo
[18] = Half life in simulated intestinal fluid at pH 6.8 in presence of pancreatin; assay type: ADME; conditions: simulated intestinal fluid with pancreatin
Liver [19] = experiment: Prodrug conversion in mouse liver microsomes assessed as formation of MPC-3100; assay type: ADME
[20] = Half life in human liver microsomes in absence of NADPH; assay type: ADME
[21] = Half life in mouse liver microsomes in absence of NADPH; assay type: ADME
Plasma [22] = experiment: Prodrug conversion in mouse plasma assessed as formation of MPC-3100; assay type: ADME, cell-free
Mus musculus [23] = experiment: Oral bioavailability in mouse assessed as MPC-3100 at 265 mg/kg administered with 2% CMC by LC-ESI-MS/MS analysis; assay type: ADME, organism-based; conditions: in vivo
[24] = Half life in human plasma; assay type: ADME, cell-free
[25] = Half life in simulated gastric fluid at pH 1.2 in presence of pepsin; assay type: ADME; conditions: simulated gastric fluid with pepsin
[26] = Half life in human liver microsomes in presence of NADPH; assay type: ADME
[27] = Half life in mouse liver microsomes in presence of NADPH; assay type: ADME
[28] = Half life in simulated gastric fluid at pH 1.2; assay type: ADME
Mus musculus [29] = experiment: Cmax in mouse assessed as MPC-3100 at 265 mg/kg, po administered with 2% CMC by LC-ESI-MS/MS analysis; assay type: ADME, organism-based; set-up: dose 265 mg/kg, route oral; conditions: in vivo
[30] = Half life in simulated intestinal fluid at pH 6.8; assay type: ADME
Liver microsome [31] = experiment: Prodrug conversion in human liver microsomes assessed as formation of MPC-3100; assay type: ADME
[32] = Aqueous solubility of the compound in simulated intestinal fluid at pH 6.5 to 6.8; assay type: physicochemical
Mus musculus [33] = experiment: AUC in mouse assessed as MPC-3100 at 265 mg/kg, po administered with 2% CMC by LC-ESI-MS/MS analysis; assay type: ADME, organism-based; conditions: in vivo
[34] = Half life in monkey plasma; assay type: ADME, cell-free, Macaca mulatta; conditions: rhesus monkey
[35] = Half life in phosphate buffer at pH 7.4; assay type: physicochemical
Mus musculus [36] = experiment: Tmax in mouse assessed as MPC-3100 at 265 mg/kg, po administered with 2% CMC by LC-ESI-MS/MS analysis; assay type: ADME, organism-based; conditions: in vivo
[37] = Half life in mouse plasma; assay type: ADME, cell-free
Mus musculus [38] = experiment: Oral bioavailability in mouse assessed as MPC-3100; assay type: ADME, organism-based; conditions: in vivo
NCI-N87 [39] = experiment: Antitumor activity against human NCI-N87 cells xenografted in mouse assessed as tumor regression; assay type: functional
NCI-N87 [40] = experiment: Antitumor activity against human NCI-N87 cells xenografted in mouse assessed as tumor growth inhibition at 265 mg/kg, po; assay type: functional, organism-based
[41] = Toxicity in po dosed nu+/- mouse; assay type: organism-based; conditions: in vivo
Mus musculus [42] = experiment: Toxicity in nu+/- mouse assessed as mortality at 286 mg/kg, po; assay type: organism-based; conditions: in vivo

Drug metabolism (Liver microsome [1]): metabolite_detected
solubility [2]: 7.5 µg/mL (≈ 13.6 µM)
Tmax [3]: 1 h
Drug metabolism (Plasma [4]): metabolite_detected
Cmax [5]: 7370 ng/mL
AUC [6]: 35100 ng·h/mL
Drug metabolism [7]: metabolite_detected
AUC [8]: 113000 ng·h/mL
Cmax [9]: 24900 ng/mL
Papp [10]: 420 ×10⁻⁶ cm/s
solubility kinetic [11]: 10.2 µg/mL (≈ 18.6 µM)
Tmax [12]: 0.3 h
bioavailability [13]: 67%
bioavailability [14]: 21%
Drug metabolism (Liver [16]): metabolite_detected
SMILES: C[C@H](O)C(=O)N1CCC(CCn2c(Sc3cc4c(cc3Br)OCO4)nc3c(N)ncnc32)CC1
inhibition in vivo at 200 mg/kg (NCI-N87 [15]): 46%

SMILES: CS(=O)(=O)O.C[C@H](N)C(=O)O[C@@H](C)C(=O)N1CCC(CCn2c(Sc3cc4c(cc3Br)OCO4)nc3c(N)ncnc32)CC1
Activity (Mus musculus [17]): Non-toxic
half-life [18]: 0.367 h
Drug metabolism (Liver [19]): metabolite_detected
half-life [20]: 2 min
half-life [21]: < 2 min
Drug metabolism (Plasma [22]): metabolite_detected
Papp [10]: 2.7 ×10⁻⁶ cm/s
F (Mus musculus [23]): 56%
solubility kinetic [11]: 536 µg/mL
half-life [24]: 2.48 h
half-life [25]: > 4 h
half-life [26]: 2 min
half-life [27]: < 2 min
half-life [28]: > 4 h
Cmax (Mus musculus [29]): 21562 ng/mL
half-life [30]: 2.88 h
Drug metabolism (Liver microsome [31]): metabolite_detected
solubility [32]: > 1000 µg/mL
AUC (Mus musculus [33]): 94194 ng·h/mL
half-life [34]: 5 h
half-life [35]: 2.42 h
Tmax (Mus musculus [36]): 1 h
half-life [37]: < 2 min

SMILES: C[C@H](OC(=O)[C@@H](N)CCCCN)C(=O)N1CCC(CCn2c(Sc3cc4c(cc3Br)OCO4)nc3c(N)ncnc32)CC1
F (Mus musculus [38]): > 40%
solubility [32]: > 1000 µg/mL
TGI (NCI-N87 [39]): >40%

SMILES: C[C@H](N)C(=O)O[C@@H](C)C(=O)N1CCC(CCn2c(Sc3cc4c(cc3Br)OCO4)nc3c(N)ncnc32)CC1
TGI (NCI-N87 [40]): Active

SMILES: C[C@H](N)C(=O)O[C@@H](C)C(=O)N1CCC(CCn2c(Sc3cc4c(cc3Br)OCO4)nc3c(N)ncnc32)CC1.Cl.Cl
MTD [41]: 252 mg/kg

SMILES: C[C@H](OC(=O)[C@@H](N)CCCCN)C(=O)N1CCC(CCn2c(Sc3cc4c(cc3Br)OCO4)nc3c(N)ncnc32)CC1.Cl.Cl.Cl
Activity (Mus musculus [42]): Toxic
